Test results taken from ChEMBL document CHEMBL5724696, “Autophagy assay results for EUbOPEN Chemogenomics Library” (2024).
Several values for one entry are separate records, joined by “and”; a condition that tells them apart may be missing. Identical values can stand only once.

What was measured:
Type in all cases: functional, Homo sapiens
TERT-RPE1 = test: (§1) Here: values are normalized to the negative (DMSO; defined as 0% autophagy induction) and positive (250nM Torin1; mTOR inhibitor; defined as maximal inducer of autophagy = 100%) control compounds and represented as % of autophagy induction. […] The impact of autophagy induction on cells is complex and depends on the affected target. As such, the magnitude of a phenotype may not be equally mirrored in the %-value of autophagy induction and vice versa. The dynamics of the induction may indicate the mode of activation: e.g. activation via phosphorylation or a signaling cascade may occur fast, while activation via transcription factors may take considerably longer. […] Of note, treatment concentrations may be sub-optimal for specific compounds, leading to false negative annotations.; details: Culturing Media DMEM/F12 (1:1), 1 % Penicillin/Streptomycin, 10% Fetal bovin serum Add-On: No, Screening Media Control DMEM/F12 (1:1), Screening Media Samples DMEM/F12 (1:1)
U2OS [1] = test: as §1; details: Culturing Media DMEM, 1 % Penicillin/Streptomycin, 10% Fetal bovin serum Add-On: No, Screening Media Control DMEM, Screening Media Samples DMEM
U2OS [2] = test: as §1; details: Culturing Media DMEM, 1 % Penicillin/Streptomycin, 10% Fetal bovin serum Add-On: No, Screening Media Control DMEM, Screening Media Samples DMEM; remark: listed apart in the source
[3] = Compound Concentration 0.5 uM, Timepoint 12 hours
[4] = Compound Concentration 0.5 uM, Timepoint 24 hours
[5] = Compound Concentration 0.5 uM, Timepoint 36 hours
[6] = Compound Concentration 0.5 uM, Timepoint 60 hours
[7] = Compound Concentration 2 uM, Timepoint 12 hours
[8] = Compound Concentration 2 uM, Timepoint 24 hours
[9] = Compound Concentration 2 uM, Timepoint 36 hours
[10] = Compound Concentration 2 uM, Timepoint 60 hours
[11] = Compound Concentration 10 uM, Timepoint 12 hours
[12] = Compound Concentration 10 uM, Timepoint 24 hours
[13] = Compound Concentration 10 uM, Timepoint 36 hours
[14] = Compound Concentration 10 uM, Timepoint 60 hours

Row | Compound | autophagy induction (U2OS [1]; [3]) [%] | autophagy induction (U2OS [1]; [4]) [%] | autophagy induction (U2OS [1]; [5]) [%] | autophagy induction (U2OS [1]; [6]) [%] | autophagy induction (U2OS [1]; [7]) [%] | autophagy induction (U2OS [1]; [8]) [%] | autophagy induction (U2OS [1]; [9]) [%] | autophagy induction (U2OS [1]; [10]) [%] | autophagy induction (U2OS [1]; [11]) [%] | autophagy induction (U2OS [1]; [12]) [%] | autophagy induction (U2OS [1]; [13]) [%] | autophagy induction (U2OS [1]; [14]) [%] | autophagy induction (U2OS [2]; [3]) [%] | autophagy induction (U2OS [2]; [4]) [%] | autophagy induction (U2OS [2]; [5]) [%] | autophagy induction (U2OS [2]; [6]) [%] | autophagy induction (U2OS [2]; [7]) [%] | autophagy induction (U2OS [2]; [8]) [%] | autophagy induction (U2OS [2]; [9]) [%] | autophagy induction (U2OS [2]; [10]) [%] | further results
1 | FC(F)(F)c1cccc(-c2noc(-c3cc(-c4ccccc4)c(C(F)(F)F)s3)n2)c1 | -1.1495 | -3.455 | -61.0771 | -1.369 | -1.566 | -3.4743 | -60.4788 | -1.735 | -17.6781 | -7.308 | -61.2616 | -2.196 | 9.021 | 3.382 | -0.06707 | -12.3398 | 0.8817 | -10.2337 | -8.601 | -22.9781 | autophagy induction (TERT-RPE1; Compound Concentration 0.5 uM, Timepoint 12 hours, 12 h, 0.5 µM): 1.977% and -3.815%; autophagy induction (TERT-RPE1; Compound Concentration 0.5 uM, Timepoint 24 hours, 24 h, 0.5 µM): 1.344% and -4.458%; autophagy induction (TERT-RPE1; Compound Concentration 0.5 uM, Timepoint 36 hours, 36 h, 0.5 µM): 0.88% and -7.47%; autophagy induction (TERT-RPE1; Compound Concentration 0.5 uM, Timepoint 60 hours, 60 h, 0.5 µM): -0.5412% and -7.068%; autophagy induction (TERT-RPE1; Compound Concentration 2 uM, Timepoint 12 hours, 12 h, 2 µM): 8.025% and -0.7273%; autophagy induction (TERT-RPE1; Compound Concentration 2 uM, Timepoint 24 hours, 24 h, 2 µM): 4.894% and -1.63%; autophagy induction (TERT-RPE1; Compound Concentration 2 uM, Timepoint 36 hours, 36 h, 2 µM): 2.202% and -4.099%; autophagy induction (TERT-RPE1; Compound Concentration 2 uM, Timepoint 60 hours, 60 h, 2 µM): 3.847% and -8.453%; autophagy induction (TERT-RPE1; Compound Concentration 10 uM, Timepoint 12 hours, 12 h, 10 µM): -16.4913% and 2.616%; autophagy induction (TERT-RPE1; Compound Concentration 10 uM, Timepoint 24 hours, 24 h, 10 µM): -1.867% and 1.296%; autophagy induction (TERT-RPE1; Compound Concentration 10 uM, Timepoint 36 hours, 36 h, 10 µM): 1.745% and 2.594%; autophagy induction (U2OS [2]; [11]): -28.6388%; autophagy induction (U2OS [2]; [12]): -12.6195%; autophagy induction (U2OS [2]; [13]): -3.849%; autophagy induction (U2OS [2]; [14]): -3.37%
2 | CCOC(=O)c1cc(C#N)c(N2CCC(C(=O)NS(=O)(=O)Cc3ccccc3)CC2)nc1C | -5.45 | -2.451 | -3.099 | -2.587 | 4.284 | 0.2818 | 0.3824 | -0.02347 | -3.626 | -2.74 | -1.363 | -0.00442 | -1.238 | -0.869 | -0.6019 | -13.2748 | -11.375 | -8.508 | -7.086 | -3.832 | autophagy induction (TERT-RPE1; [3]): -6.976%; autophagy induction (TERT-RPE1; [4]): -10.3002%; autophagy induction (TERT-RPE1; [5]): -8.825%; autophagy induction (TERT-RPE1; [6]): -14.4044%; autophagy induction (TERT-RPE1; [7]): -3.0862%; autophagy induction (TERT-RPE1; [8]): -5.808%; autophagy induction (TERT-RPE1; [9]): -6.285%; autophagy induction (TERT-RPE1; [10]): -11.624%; autophagy induction (TERT-RPE1; [11]): -2.8574%; autophagy induction (TERT-RPE1; [12]): -4.514%; autophagy induction (TERT-RPE1; [13]): -6.439%; autophagy induction (TERT-RPE1; [14]): -9.708%; autophagy induction (U2OS [2]; [11]): -0.3683%; autophagy induction (U2OS [2]; [12]): 1.86%; autophagy induction (U2OS [2]; [13]): -9.343%; autophagy induction (U2OS [2]; [14]): -16.8017%
